Test results: US20220146526A1, “METHOD FOR EVALUATING SAMPLE, ANALYSIS METHOD, METHOD FOR DETECTING DEGRADED SAMPLE, MARKER FOR DETECTING DEGRADED BLOOD PLASMA SAMPLE, AND MARKER FOR DETECTING DEGRADED SERUM SAMPLE” (SHIMADZU CORPORATION, priority 2019, published 2022)

Columns and labels:
Format in all cases: physicochemical, human
[1] = GC/MS of serum sample: time from blood collection to centrifugation (Table G); conditions: for Increase or decrease: detection intensity, after 4 hours vs 15 minutes; for Increase or decrease / Rate of increase or decrease: blood collection to centrifugation; for Rate of increase or decrease: detection intensity relative to 1 at 15 minutes
Method in brief: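 Blood was held for varying times before centrifugation (room temperature, 3500 rpm, 5 min); serum was frozen, then methoxymated and trimethylsilylated for GC/MS with electron ionization in MRM mode. Values are detection intensities relative to the 15-minute collection-to-centrifugation condition, set as 1.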

[2] = GC/MS of serum sample: time from centrifugation to isolation (Table H); set-up: key to Rate of increase or decrease / Rate of increase or decrease (first value, increase): detection intensity relative to 1 at 30 min centrifugation-to-isolation; conditions: for Rate of increase or decrease: detection intensity relative to 1 at 30 minutes; for Increase or decrease: detection intensity
Method in brief: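 Blood was centrifuged at room temperature, 3500 rpm, 5 min, and the vessel left at room temperature for 30 min, 1 h or 6 h before serum isolation. Serum was methoxymated, trimethylsilylated and analysed by GC/MS with electron ionization in MRM mode; intensities expressed relative to the 30-min condition (=1).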

[3] = GC/MS of blood plasma sample: number of times of freezing and thawing (Table C); conditions: for Rate of increase or decrease: detection intensity relative to 1 at 2 times; for Increase or decrease: detection intensity
Method in brief: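 EDTA plasma from a healthy subject, cooled within 1 min or after 5+ min, centrifuged 4 °C/3000 rpm/15 min, frozen, then freeze-thawed 2, 4, 6 or 10 times. Methoximated, trimethylsilylated samples run by GC/MS (BPX5 column, EI, MRM). Values are detection intensity relative to 2 freeze-thaw cycles set as 1.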

[4] = LC/MS of blood plasma sample: number of times of freezing and thawing (Table F); conditions: for Rate of increase or decrease: detection intensity relative to 1 at 2 times; for Increase or decrease: detection intensity
Method in brief: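 Human blood from a healthy subject drawn into EDTA tubes, cooled to 4° C within 1 min or after ≥5 min, centrifuged at 4° C, 3000 rpm, 15 min. Plasma frozen, then freeze-thawed 2, 4, 6 or 10 times and analysed by LC/MS (ESI, MRM). Intensities expressed relative to 2 freeze-thaw cycles set as 1.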

[5] = LC/MS of serum sample: time from blood collection to centrifugation (Table J); conditions: for Increase or decrease / Time when compound is affected: serum sample, LC/MS; for Increase or decrease: detection intensity vs 15 minutes from blood collection to centrifugation; for Time when compound is affected: time from blood collection to centrifugation, detection intensity changed by 30% or more vs 15 minutes
Method in brief: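 Serum from blood centrifuged at room temperature, 3500 rpm, 5 min, then frozen; analysed by LC/MS on a Discovery HS F5-3 column at 40 °C. Mobile phase: 0.1% formic acid in water/acetonitrile, 0.25 mL/min, electrospray MRM. Values are intensity relative to a 15 min collection-to-centrifugation time.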

[6] = LC/MS of blood plasma sample: time from blood collection to cooling of blood (Table E); set-up: key to Rate of increase or decrease / Rate of increase or decrease (first value, increase): detection intensity relative to ≤1 min to cooling = 1; conditions: for Rate of increase or decrease: detection intensity relative to 1 at 1 minute or less, blood collection to cooling 5 minutes; for Increase or decrease: detection intensity, blood collection to cooling 5 minutes or more vs 1 minute or less
[7] = freezing and thawing 4 times vs 2 times
[8] = freezing and thawing 10 times vs 2 times
[9] = freezing and thawing 6 times vs 2 times
[10] = after 4 hours from blood collection to centrifugation, detection intensity relative to 1 at 15 minutes

With `CC(C)(CO)[C@@H](O)C(=O)NCCC(=O)O` [Pantothenic acid] the Increase or decrease [1] was “Different from individual”, the “Rate of increase or decrease (second value, decrease)” value ([1]; different from individual to individual, individuals with decrease, relative to 1 at 15 minutes, collection to centrifugation, after 4 hours) was 0.51 and the “Rate of increase or decrease (first value, increase)” value ([1]; different from individual to individual, individuals with increase, relative to 1 at 15 minutes, collection to centrifugation, after 4 hours) was 1.78. The “Rate of increase or decrease” value ([2]; after 1 hour) was 0.66, the Increase or decrease ([2]; after 1 hour vs 30 minutes) was “Decrease” and the “Rate of increase or decrease” value ([3]; freezing and thawing 4 times) was 3.07. The Increase or decrease [3, 7] was “Increase”, the “Rate of increase or decrease” value ([4]; freezing and thawing 10 times) was 1.43 and the Increase or decrease [4, 8] was “Increase”. The “Rate of increase or decrease” value ([5]; after 12 hours from blood collection to centrifugation, detection intensity relative to 1 at 15 minutes) was 1.43, the Increase or decrease [5] was “Increase” and the “Time when compound is affected” value [5] was “After 12 hours”.

For `O=c1[nH]cnc2nc[nH]c12` [Hypoxanthine], the “Rate of increase or decrease” value ([1]; after 4 hours) was 2.11, the Increase or decrease [1] was “Increase” and the “Rate of increase or decrease” value [6] was 7.92. The Increase or decrease [6] was “Increase”, the “Rate of increase or decrease” value ([2]; after 1 hour) was 1.36 and the Increase or decrease ([2]; after 1 hour vs 30 minutes) was “Increase”. The “Rate of increase or decrease” value ([4]; freezing and thawing 6 times) was 2.04, the Increase or decrease [4, 9] was “Increase” and the “Rate of increase or decrease” value [5, 10] was 2.24. For the same compound, the Increase or decrease [5] was “Increase” and the “Time when compound is affected” value [5] was “After 4 hours”.

In the case of `NC(=O)NC1NC(=O)NC1=O` (stereo not drawn) [Allantoin], the “Rate of increase or decrease” value ([1]; after 4 hours) is reported as 1.67, the Increase or decrease [1] is reported as “Increase” and the Increase or decrease [6] is reported as “Different from individual”. The “Rate of increase or decrease (second value, decrease)” value ([6]; different from individual to individual, individuals with decrease, relative to 1 at 1 minute or less, collection to cooling 5 minutes) was 0.40, the “Rate of increase or decrease (first value, increase)” value ([6]; different from individual to individual, individuals with increase, relative to 1 at 1 minute or less, collection to cooling 5 minutes) was 1.57 and the “Rate of increase or decrease” value ([2]; after 6 hours) was 3.00. For the same compound, the Increase or decrease ([2]; after 6 hours vs 30 minutes) was “Increase”, the “Rate of increase or decrease” value ([3]; freezing and thawing 10 times) was 1.42 and the Increase or decrease [3, 8] was “Increase”. The “Rate of increase or decrease” value ([4]; freezing and thawing 4 times) was 0.55, the Increase or decrease [4, 7] was “Decrease” and the “Rate of increase or decrease” value ([5]; after 4 hours, relative to 1 at 15 minutes, different from individual to individual, first value (increase)) was 1.78. The “Rate of increase or decrease” value ([5]; after 4 hours, relative to 1 at 15 minutes, different from individual to individual, second value (decrease)) was 0.40, the Increase or decrease [5] was “Different from individual” and the “Time when compound is affected” value [5] was “After 4 hours”.

In the case of `O=c1[nH]c(=O)c2[nH]cnc2[nH]1` [Xanthine], the “Rate of increase or decrease” value [6] is reported as 1.47, the Increase or decrease [6] is reported as “Increase” and the Increase or decrease [3, 9] is reported as “Different from individual”. For the same compound, the “Rate of increase or decrease (second value, decrease)” value ([3]; different from individual to individual, individuals with decrease, relative to 1 at 2 times, freezing and thawing 6 times) was 0.51, the “Rate of increase or decrease (first value, increase)” value ([3]; different from individual to individual, individuals with increase, relative to 1 at 2 times, freezing and thawing 6 times) was 2.21 and the “Rate of increase or decrease” value ([4]; freezing and thawing 4 times) was 1.77. The Increase or decrease [4, 7] was “Increase”, the “Rate of increase or decrease” value [5, 10] was 1.92 and the Increase or decrease [5] was “Increase”. For the same compound, the “Time when compound is affected” value [5] was “After 4 hours”.
